This passage reports Kd results from article PMC4006730, “Trans-spliced Heat Shock Protein 90 Modulates Encystation in Giardia lamblia” (PLoS Neglected Tropical Diseases, 2014).

Format in all cases: binding
For assay [1], the target named is T1, GlHsp90 (trans-spliced full-length heat shock protein 90) (Giardia duodenalis, UniProt A0A644F9H9).
T1 construct: gene GL50803_0098054; full length Hsp90, N terminus 6x His-tag (Methods text says purified HspN)
The experiment in a line: intrinsic fluorescence quenching; also inhibits the purified ATPase (EC50 […]).

The target of assay [2] is T1, GlHsp90 (trans-spliced full-length heat shock protein 90). The experiment in a line: intrinsic fluorescence quenching; also ATPase by TLC with radiolabelled ATP (Km […]).
For assay [3] the target is unchanged. Nature of the assay: intrinsic tryptophan fluorescence quenching (ex […] nm, em […] nm), single-site fit.

T1 sequence (A0A644F9H9 entry or part of it): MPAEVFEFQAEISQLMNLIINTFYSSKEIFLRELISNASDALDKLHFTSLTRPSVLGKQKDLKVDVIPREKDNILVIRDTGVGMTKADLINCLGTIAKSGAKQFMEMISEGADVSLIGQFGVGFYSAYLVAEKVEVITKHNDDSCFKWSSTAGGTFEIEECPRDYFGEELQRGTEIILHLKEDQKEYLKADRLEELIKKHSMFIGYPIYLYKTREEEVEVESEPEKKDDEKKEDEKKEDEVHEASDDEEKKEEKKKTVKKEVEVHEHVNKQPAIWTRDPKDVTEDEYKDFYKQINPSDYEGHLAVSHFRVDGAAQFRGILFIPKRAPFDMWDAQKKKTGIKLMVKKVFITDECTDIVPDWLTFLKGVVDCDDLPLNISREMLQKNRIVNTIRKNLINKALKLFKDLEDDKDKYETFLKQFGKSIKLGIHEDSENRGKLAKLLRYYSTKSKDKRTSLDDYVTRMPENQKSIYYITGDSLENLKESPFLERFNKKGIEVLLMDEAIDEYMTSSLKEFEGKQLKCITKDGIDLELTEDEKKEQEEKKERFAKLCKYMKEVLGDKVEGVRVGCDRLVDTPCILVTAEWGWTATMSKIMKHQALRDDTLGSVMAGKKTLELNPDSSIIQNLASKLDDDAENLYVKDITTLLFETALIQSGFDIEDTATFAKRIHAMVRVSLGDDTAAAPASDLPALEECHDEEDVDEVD

Compound `C=CCNC1=C2C[C@@H](C)C[C@H](OC)[C@H](O)[C@@H](C)/C=C(\C)[C@H](OC(N)=O)[C@@H](OC)/C=C\C=C(/C)C(=O)NC(=CC1=O)C2=O` [17AAG] gave a dissociation constant (Kd) in assay [1] of 17.1 µM.

In the case of `Nc1ncnc2c1ncn2[C@@H]1O[C@H](COP(=O)(O)OP(=O)(O)OP(=O)(O)O)[C@@H](O)[C@H]1O` [ATP], the Kd in assay [2] came to 630 µM.

Consider `COC1=C2C[C@@H](C)C[C@H](OC)[C@H](O)[C@@H](C)/C=C(\C)[C@H](OC(N)=O)[C@@H](OC)/C=C\C=C(/C)C(=O)NC(=CC1=O)C2=O` [GA, Geldanamycin], for which the affinity in assay [3], expressed as Kd, was 1500 nM.

One may read the Kd as a measure of binding affinity in units of concentration. A low value points to a tighter complex.
